{"source": "patent US20240139280A1", "about": "“USE OF HIF-1-ALPHA INHIBITORS IN CANCER IMMUNOTHERAPY” (ONCOC4, INC., priority 2021, published 2024)", "key": {"[1]": {"assay": "Tolerability and LD50 of intravenous echinomycin in mice", "conditions": "mouse, in vivo"}, "[2]": {"test_system": "PD-L1 expression in 4T1 cells", "assay": "PD-L1 expression in 4T1 cells by flow cytometry", "type": "cell-based, murine", "conditions": "normoxia, echinomycin 0.45 nM, 48 hours"}, "[3]": {"test_system": "MC38 tumor", "assay": "MC38 tumor growth in mice", "type": "in vivo", "conditions": "echinomycin 0.15 mg/kg", "protocol": "FIGS. 3A-D show the therapeutic effects of echinomycin on tumor growth in immunodeficient and immunocompetent mice. FIG. 3A. Experimental design. Three murine tumor lines were tested: 4T1, E0771, or MC38. For each, immunodeficient and immunocompetent mice were inoculated (day 0), and treatment was initiated with control liposomes (vehicle) or echinomycin liposomes (LEM) on day 6, indicated by arrows in FIGS. 3B-3D. The kinetics of tumor growth were compared to deduce the role of adaptive immunity in the therapeutic effects of echinomycin. FIG. 3B. 4T1 cells (1×10^6) were transplanted into mammary fat pad of NSG and BALB/c mice, which received vehicle or echinomycin (0.15 mg/kg) (arrows). Mean tumor volumes±SEM are shown for one of two independent experiments (n=10/group). FIG. 3C. Kinetics of E0771 tumor growth. E0771 cells (0.7×10^6) were transplanted into mammary fat pad of NSG and C57BL/6 mice, which received vehicle or echinomycin (0.25 mg/kg) (arrows). Mean tumor volumes±SEM are shown for one of two independent experiments (n=5/group). FIG. 3D. Kinetics of MC38 tumor growth. […]\nTumor Models The details of each experiment are specified in the figure legends. […] Tumor volumes were calculated and reported based on the formula […], where a is the longer diameter, and b is the shorter diameter. […]"}, "[4]": {"test_system": "leukemia stem cells", "conditions": "Wang et al., 2011; cited from earlier work"}, "[5]": {"test_system": "intestinal tissues", "assay": "Ipilimumab-induced GI-irAE in human CTLA4 knockin mice (FITC-dextran, histology, PD-L1)", "quoted_text": "Experimental design for GI-irAE induction by Ipilimumab, with or without additional therapies. 10-day old CTLA4h/h mice received 0.1 mg of Ipilimumab on days 10, 13, 16, and 19 after birth to induce the GI-irAE phenotype, measured by FITC-dextran assay on day 32. On day 33, the mice were sacrificed for histological and immunofluorescent analysis of intestinal tissues, and flow cytometry, etc. […] Aggregate data from 4 experiments are presented. […] Starting on day 10 after birth, the mice began receiving treatment with vehicle (n=33), echinomycin (n=27), Ipilimumab (n=33), Ipilimumab+echinomycin (n=26), Ipilimumab+RMP1-14 (n=27), Ipilimumab+echinomycin+RMP1-14 (n=28), or Ipilimumab+echinomycin+XMG1.2 (n=15). Echinomycin (10 μg/kg), Ipilimumab (0.1 mg/mouse/injection), RMP1-14 (0.2 mg/mouse/injection), and XMG1.2 (0.2 mg/mouse/injection). Vehicle or echinomycin (10 μg/kg) were given once every three days for 8 doses, and mAbs (0.1 mg/mo. for Ipilimumab; 0.2 mg/mo. for RMP1-14 and XMG1.2) once every three days for 4 doses. Data collection was performed as described in (FIG. 8A). […] Serum FITC-dextran intensity shown as mean±SEM for individual mice pooled from 3 independent experiments. […] Statistics were determined by unpaired t tests (two-tailed) for group means. […] Representative H&E images from intestines of Ipilimumab-treated mice additionally treated with echinomycin (panel i), RMP1-14 (panels ii-iv), echinomycin+RMP1-14 (panels v-vi), or echinomycin+XMG1.2 (panels vii-viii). […] Representative immunofluorescence images showing relative expression of PD-L1 in jejunum of mice from different treatment groups.\nTherefore, we used intestinal permeability to orally administrated FITC-dextran and histology as the readout for irAE (FIG. 8A)."}}, "data": [{"smiles": "CSC1SC[C@H]2C(=O)N(C)[C@@H](C(C)C)C(=O)OC[C@@H](NC(=O)c3cnc4ccccc4n3)C(=O)N[C@@H](C)C(=O)N(C)[C@@H]1C(=O)N(C)[C@@H](C(C)C)C(=O)OC[C@@H](NC(=O)c1cnc3ccccc3n1)C(=O)N[C@@H](C)C(=O)N2C", "note": "(stereo in doubt) [echinomycin, N,N′-(2,4,12,15,17,25-hexamethyl-11,24-bis(1-methylethyl)-27-(methylthio)-3,6,10,13,16,19,23,26-octaoxo-9,22-dioxa-28-thia-2,5,12,15,18,25-hexaazabicyclo(12.12.3)nonacosane-7,20-diyl)bis(2-quinoxalinecarboxamide)]", "values": [{"measurement": "LD50", "setting": "[1]", "result": 0.629, "unit": "mg/kg"}, {"measurement": "PD-L1 protein", "setting": "[2]", "result": "reduced PD-L1 protein"}, {"measurement": "MC38 tumor growth, combination study", "setting": "[3]; C57BL/6, mAbs 0.2 mg/mouse/injection, vs vehicle", "result": "significant inhibition of tumor growth"}, {"measurement": "MC38 tumor growth", "setting": "[3]; C57BL/6 vs NSG", "result": "all therapeutic effects required immune competence"}, {"measurement": "elimination of leukemia stem cells", "setting": "[4]", "result": "effectively eliminated leukemia stem cells"}, {"measurement": "PD-L1 expression in the intestines", "setting": "[5]; Ipilimumab 0.1 mg/mouse/injection, echinomycin 10 μg/kg added to Ipilimumab", "result": "enhanced PD-L1 expression"}, {"measurement": "Ipilimumab-induced intestinal leakage (FITC-dextran)", "setting": "[5]; agent added to Ipilimumab (anti-PD-1 added to Ipilimumab+echinomycin)", "result": "protected against Ipilimumab-induced intestinal leakage"}, {"measurement": "H&E findings in intestines of Ipilimumab-treated mice additionally treated with the agent", "setting": "[5]; representative images, FIG. 8F panels", "result": "normal pathology"}]}]}
